One test concerns S. aureus. The experiment in a line: Clinical outcome of the prescribed antibiotic therapy (presence/absence of S. aureus in a second sample at end of first-line treatment). The format is in vivo, patients diabétiques. The text has this:
• La Figure 1 représente des courbes de croissance de bactéries en fonction du milieu de culture. Sur cette figure, les ordonnées correspondent au logarithme d'unités formant colonie par millilitre de milieu de culture (Log UFC/ml) et les abscisses, au temps en heure (H). La Figure 1A représente les courbes correspondant à la croissance de 2 souches de S. aureus, Newman (gauche) et SAC1 (droite), dans le milieu BHI (courbe avec indicateurs ronds) et un exemple de milieu selon l'invention (MP) (courbe avec indicateurs carrés). La Figure 1B représente les courbes correspondant à la croissance de 2 souches de P. aeruginosa, PAO1 (gauche) et PAC1 (droite), dans le milieu BHI (courbe avec indicateurs ronds) et un exemple de milieu selon l'invention (MP) (courbe avec indicateurs carrés). La Figure 1C représente les courbes correspondant à la croissance de 2 souches cliniques S. aureus SAC1 et P. aeruginosa PAC1, en coculture dans le milieu BHI (P. aeruginosa BHI ou S. aureus BHI) et un exemple de milieu selon l'invention (MP) (P. aeruginosa MP ou S. aureus MP). La mesure de différence significative, réalisée par le test de Student, entre les valeurs d'UFC/mL est exprimée, soit par (***) qui correspond à une p-value <0,001, soit par (**) qui correspond à une p-value <0,01. • La Figure 2 représente les résultats obtenus d'une détermination de l'adhésion et de la formation de biofilm par dénombrement à 24h. Sur cette figure, les ordonnées correspondent au logarithme d'unités formant colonie par millilitre de milieu de culture (Log UFC/ml). La Figure 2A représente un histogramme ou diagramme en bâton du nombre de bactéries dénombrées suite à des cultures séparées de souche S. aureus Newman (Newman), S. aureus SAC1 (SAC 1), P. aeruginosa PAO1 (PAO1) ou P. aeruginosa PAC1 (PAC1), pendant 24H dans un milieu BHI (BHI) (bâtons noirs) ou dans un exemple de milieu selon l'invention (MP) (bâtons gris). La Figure 2B montre sous forme d'histogramme le nombre de bactéries dénombrées suite à des co-cultures des souches de référence S. aureus Newman et P. aeruginosa PAO1 (PAO1/Newman), ainsi que du couple de souches cliniques S. aureus SAC1 et P. aeruginosa PAC1 (PAC 1/SAC1), pendant 24H dans un milieu BHI (BHI) (bâtons noirs) ou dans un exemple de milieu selon l'invention (MP) (bâtons gris). La mesure de différence significative, réalisée par le test de Student, entre les valeurs d'UFC est exprimée, soit par (***) qui correspond à une p-value <0,001, soit par (**) qui correspond à une p-value <0,01. • La Figure 3 représente les résultats obtenus d'une détermination de sensibilité à des antibiotiques de souches cliniques de S. aureus issues d'infections de plaies du pied chez le diabétique. Les données cliniques, anonymisées, nécessaires à l'interprétation des résultats, consistaient en l'antibiothérapie donnée au patient, ainsi que la qualification par les médecins hospitaliers d'un succès ou échec thérapeutique. La définition de succès ou échec thérapeutique est définie comme suit. Le patient commence et suit l'antibiothérapie prescrite et un deuxième prélèvement microbiologique est effectué lors du dernier jour de traitement de la 1ère antibiothérapie (± 2 jours). Ce prélèvement est utilisé pour déterminer la présence/absence du pathogène ciblé par l'antibiothérapie, S. aureus. Si ce prélèvement a montré la persistance d'un S. aureus, l'antibiothérapie est en échec. A l'inverse, en cas d'absence de S. aureus, l'antibiothérapie est associée à un succès thérapeutique. Les antibiogrammes ont été réalisés classiquement sur une durée de 18h ± 2h en accord avec les recommandations de l'EUCAST. Une gamme de l'antibiotique à tester a été réalisée. • La Figure 3A montre sous forme d'histogramme les résultats des CMI déduites d'antibiogrammes sur 11 souches testées en présence d'amoxicilline / clavulanate de potassium (commercialisé par exemple sous le nom d'Augmentin (marque déposée)). […]

For another test, the system named is souche de S. aureus. To be noted: modèle de sepsis, souris infectée par S. aureus, traitées; cited from earlier work.

Turning to “amoxicilline / clavulanate de potassium [amoxicilline/clavulanate de potassium]”, the “Succès ou échec thérapeutique” value in the test on S. aureus (souche C01P012) is listed as “Succès”; in the test on S. aureus (souche C03P001), “Succès”; in the test on S. aureus (souche C03P008), “Echec”; in the test on S. aureus (souche C04P003) it was “Succès”; in the test with S. aureus (souche C04P005f), “Succès”; with S. aureus (souche C04P005i), “Succès”. Further, the “Succès ou échec thérapeutique” value with S. aureus (souche C04P007), in the test on S. aureus (souche C06P001f), with S. aureus (souche C06P001 i), in the test with S. aureus (souche C06P003f) and in the test with S. aureus (souche C06P003i) was “Echec” each time.
As for `CCC[C@@H]1C[C@@H](C(=O)N[C@@H]([C@H]2O[C@H](SC)[C@H](O)[C@@H](O)[C@H]2O)[C@H](C)Cl)N(C)C1` [clindamycine], the “Succès ou échec thérapeutique” value in the test on S. aureus (souche C01P009) was “Succès”; in the test with S. aureus (souche C01P010) it was “Echec”; in the test with S. aureus (souche C03P003), “Succès”; in the test with S. aureus (souche C03P004), “Succès”; with S. aureus (souche C03P005), “Echec”; with S. aureus (souche C03P009), “Succès”.
Consider cotrimoxazole, for which the survie des souris result in the test with souche de S. aureus is given as “n'a pas permis la survie des souris”. Also, the “Succès ou échec thérapeutique” value is given as “Echec” in the test on S. aureus (souche C01P0 01), “Succès” with S. aureus (souche C01P0 11), “Echec” with S. aureus (souche C03P0 02) and “Echec” with S. aureus (souche C03P0 07).

The values above are taken from patent publication EP4060021A1, “MIMETIC MICROBIOLOGICAL CULTURE MEDIUM AND USES THEREOF” (BIOFILM PHARMA, priority 2021, dated 2022).
